Results: patent US10301596B2, “Method of repairing damaged chondrocytes via low-dose irradiation” (KOREA INSTITUTE OF RADIOLOGICAL & MEDICAL SCIENCES, priority 2013, dated 2019)

Columns and labels:
Type in all cases: cell-based
chondrocytes = assay: Levels of differentiation- and inflammation-related proteins (type II collagen, Sox-9, I-κB, COX-2), Western blot in chondrocytes
Description: First, the chondrocytes derived from joints were cultured in a DMEM medium according to a known method (E. H. Hong, et al., J. Biol. Chem. 285:1283-1295, 2010). Then, the cultured chondrocytes were inoculated into culture dishes at a density of 5×10^4 cells/cm^2, which were irradiated with 0 cGy, 0.5 cGy, 1.0 cGy, 1.5 cGy, and 2.0 cGy LDR using a ^137Cs-ray source (KIRMS, Korea), and the levels of type II collagen or Sox-9 protein, which are cartilage-specific differentiation marker proteins, and I-κB or COX-2 protein, which are inflammation-related proteins, were determined via Western blot analysis, and the transcriptional activity of Sox-9 protein and NF-κB, which is affected by I-κB, were determined by reporter gene assay (FIGS. 1a and b). […]
Finally, chondrocytes were transfected with 3 μg of GFP-labeled S83A α-catenin, FLAG-labeled S33A β-catenin, or wild type γ-catenin, reacted with or without treatment with 5 μM or 10 μM BAY 11-7082 for 24 hours, and the levels of I-κB and COX-2 proteins were determined via Western blot analysis (FIG. 5g). […]

NF-κB = NF-κB transcriptional activity, reporter gene assay in chondrocytes; conditions: for NF-κB activity reduced compared to IL-1β-treated chondrocytes: 1 hour before 10 ng/mL IL-1β; for transcriptional activity of NF-κB increased: 10 ng/mL IL-1β
Description: (§1) First, the chondrocytes derived from joints were cultured in a DMEM medium according to a known method (E. H. Hong, et al., J. Biol. Chem. 285:1283-1295, 2010). Then, the cultured chondrocytes were inoculated into culture dishes at a density of 5×10^4 cells/cm^2, which were irradiated with 0 cGy, 0.5 cGy, 1.0 cGy, 1.5 cGy, and 2.0 cGy LDR using a ^137Cs-ray source (KIRMS, Korea), and the levels of type II collagen or Sox-9 protein, which are cartilage-specific differentiation marker proteins, and I-κB or COX-2 protein, which are inflammation-related proteins, were determined via Western blot analysis, and the transcriptional activity of Sox-9 protein and NF-κB, which is affected by I-κB, were determined by reporter gene assay (FIGS. 1a and b).
(§2) Chondrocytes were treated with either 10 ng/mL IL-1β alone, or in a combination of IL-1β treatment and 0.5 cGy or 1 cGy LDR, and the transcript levels of type I collagen, type II collagen, Sox-9, COX-2, and I-κB were measured via PCR using GAPDH as a control and a quantitative real-time PCR analysis, and the transcriptional activity of NF-κB was measured by reporter gene assay (FIGS. 2a, 2b, 2c, and 2d).
Meanwhile, chondrocytes were treated with LY294002, which is another chemical inhibitor of PI3K/Akt signaling, at a concentration of 10 μM or 20 μM, reacted for 1 hour, treated with […] reacted for 48 hours. Upon reaction, the levels of type II collagen, Sox-9, I-κB, and COX-2 proteins were determined via Western blot analysis, and the transcriptional activity of NF-κB was determined by reporter gene assay (FIG. 3c).
Finally, chondrocytes were transfected with 3 μg of the respective catenin plasmid for 24 hours, and untreated (−) or treated with 10 ng/mL, IL-1β (+) for 48 hours. Then, the levels of differentiation- and inflammation-related proteins were determined via Western blot analysis, and the transcriptional activity of NF-κB at 24 hours after IL-1β treatment was determined by reporter gene assay (FIG. 4d).
Additionally, the transcriptional activity of Sox-9 or NF-κB was determined by reporter gene assay, and the experimental results were indicated in terms of mean standard deviation (FIG. 5e). As a result, it was confirmed that LDR can increase the activity of Sox-9 in catenin-overexpressing chondrocytes while reducing the transcriptional activity of NF-κB. Specifically, as shown in FIG. 5e (left), 1 cGy LDR irradiation increased Sox-9 activity by about a 2.2-, 2.7-, and 2.4-fold compared to that in cells transfected with […], and, as shown in FIG. 5e (right), reduced NF-κB activity by about 74%, 78%, and 75%, respectively, thus confirming that LDR has the effect of inhibiting the induction of potential inflammation.

COX-2 = COX-2 transcript level by PCR and quantitative real-time PCR in chondrocytes; conditions: 10 ng/mL IL-1β
Description: as §2

Akt = assay: Expression and phosphorylation of Akt and GSK3α/β, Western blot in chondrocytes; conditions: 10 ng/mL IL-1β
Sox-9 = Sox-9 transcriptional activity, reporter gene assay in chondrocytes; conditions: 10 ng/mL IL-1β alone
Description: as §1, §2
Additionally, the transcriptional activity of Sox-9 or NF-κB was determined by reporter gene assay, and the experimental results were indicated in terms of mean standard deviation (FIG. 5e). […]

[1] = tested on: α-, β-, and γ-catenin proteins; assay: Levels of catenin proteins, Western blot in chondrocytes; conditions: 10 ng/mL IL-1β for a predetermined period of time
Description: First, chondrocytes were treated with 10 ng/mL IL-1β for a predetermined period of time, and the levels of the catenin proteins were determined via Western blot analysis (FIG. 4a).
First, it was examined whether LDR can directly regulate the expression of catenin proteins in chondrocytes. In this regard, chondrocytes, which were in a state untreated or treated with 10 ng/mL IL-1β, were irradiated at varied doses of LDR for 48 hours, and the levels of catenin proteins were determined via Western blot analysis (FIGS. 5a and 5h).
In order to examine whether the inhibitory effect of LDR on chondrocyte disorders is exclusively related to the responses to IL-1β, cells were treated with EGF, PMA, and RA, which are agents known to induce dedifferentiation of chondrocytes. Specifically, chondrocytes were treated or untreated with 10 ng/mL EGF(a), 10 nM PMA(b), and 1 μM RA(c) for 2 hours, treated or untreated with 0.5 cGy or 1 cGy LDR for 36 hours, and the levels of catenin proteins and differentiation/inflammation-related proteins were determined via Western blot analysis (FIGS. 6a, 6b, and 6c).

[2] = 5 μM or 10 μM, 1 hour before 10 ng/mL IL-1β, 48 hours

Cc1ccc(S(=O)(=O)/C=C/C#N)cc1 [BAY 11-7082]
degradation of I-κB and induction of COX-2 in cells transfected with α-, β- or γ-catenin (chondrocytes; 5 μM or 10 μM for 24 hours, catenin-transfected chondrocytes): reversed | COX-2 protein expression compared to IL-1β-treated chondrocytes (chondrocytes; [2]): reduced COX-2 expression | I-κB degradation (chondrocytes; [2]): inhibited I-κB degradation in a dose-dependent manner

O=c1cc(N2CCOCC2)oc2c(-c3ccccc3)cccc12 [LY294002]
NF-κB activity reduced compared to IL-1β-treated chondrocytes (NF-κB; 10 μM): about 48% | NF-κB activity reduced compared to IL-1β-treated chondrocytes (NF-κB; 20 μM): ~68%

CCCCCCCCCCCCCC(=O)O[C@@H]1[C@@H](C)[C@@]2(O)[C@@H](C=C(CO)C[C@]3(O)C(=O)C(C)=C[C@@H]23)[C@@H]2C(C)(C)[C@]12OC(C)=O [PMA, phorbol 12-myristate 13-acetate]
pathological changes induced by soluble factor (type II collagen, Sox-9, COX-2 proteins) (chondrocytes; 10 ng/mL EGF, 10 nM PMA or 1 μM RA): inhibition of expression of type II collagen and Sox-9 proteins and induction of COX-2 protein expression

IL-1β: cytokine used at 10 ng/mL to induce dedifferentiation, inflammation and destruction of chondrocytes
level of COX-2 expression increased compared to control group (COX-2; 24 hours after treatment): about 9.8 fold | level of COX-2 expression increased compared to control group (COX-2; 48 hours after treatment): ~7.7 fold | phosphorylation of Akt induced by treatment (Akt): induced the phosphorylation of Akt | level of type II collagen and Sox-9 proteins (chondrocytes; 10 ng/mL IL-1β alone): reduced the level of type II collagen and Sox-9 proteins | transcriptional activity of Sox-9 reduced compared to control cells (Sox-9; 24 hours after treatment): about 32% | transcriptional activity of Sox-9 reduced compared to control cells (Sox-9; 48 hours after treatment): ~60% | NF-κB activity increase, IL-1β treatment alone (NF-κB; 10 ng/mL IL-1β alone, 24 hours after treatment, catenin experiment (FIG. 4d)): about 8.5 fold | transcriptional activity of NF-κB increased (NF-κB; 24 hours after treatment (FIG. 2c)): about 8.6 fold | transcriptional activity of NF-κB increased (NF-κB; 48 hours after treatment (FIG. 2c)): ~6.7 fold | expression of α-, β-, and γ-catenin proteins [1]: expressed in a time-dependent manner
